# Source: article PMC9395446, “First-in-human phase 1/1b study to evaluate sitravatinib in patients with advanced solid tumors” (Investigational New Drugs, 2022)
# Assay: Safety in phase 1/1b study (DLTs, TRAEs, TEAEs; CTCAE v4.03)
# Assay type: in vivo, human
# From the text: Safety assessments included evaluation of DLTs, AEs, physical examinations, vital sign measurements, electrocardiogram recordings and laboratory tests.
# A DLT was defined as a grade ≥ 4 hematologic abnormality lasting ≥ 4 days; grade 3 thrombocytopenia with clinically significant bleeding; febrile neutropenia; clinically significant grade ≥ 3 non-hematologic AEs not related to underlying malignancy; intolerable grade 2 AEs; or toxicity resulting in an inability to deliver 80% of the dose during the first treatment cycle.
# The safety population included all patients who received ≥ 1 dose of sitravatinib. […] The PK evaluable population included all patients with sufficient concentration-time data for PK parameter evaluation. The modified intent-to-treat (mITT) population included all phase 1b patients who received ≥ 1 dose of study drug.
smiles,measurement,setting,value
"COCCNCc1ccc(-c2cc3nccc(Oc4ccc(NC(=O)C5(C(=O)Nc6ccc(F)cc6)CC5)cc4F)c3s2)nc1 [sitravatinib, Sitravatinib]","AST increased TRAE, any grade",Overall,36 (18.7) n (%)
same,"AST increased TRAE, grade ≥3",Overall,2 (1.0) n (%)
same,"Abdominal pain TEAE, any grade",Overall,44 (22.8) n (%)
same,"Abdominal pain TEAE, grade ≥3",Overall,6 (3.1) n (%)
same,"Abdominal pain TRAE, any grade",Overall,22 (11.4) n (%)
same,"Abdominal pain TRAE, grade ≥3",Overall,0 n (%)
same,"Anemia TEAE, any grade",Overall,38 (19.7) n (%)
same,"Anemia TEAE, grade ≥3",Overall,12 (6.2) n (%)
same,Any TEAE,Overall,190 (98.4) n (%)
same,Any TRAE,Overall,174 (90.2) n (%)
same,"Asthenia TEAE, any grade",Overall,20 (10.4) n (%)
same,"Asthenia TEAE, grade ≥3",Overall,0 n (%)
same,"Back pain TEAE, any grade",Overall,32 (16.6) n (%)
same,"Back pain TEAE, grade ≥3",Overall,3 (1.6) n (%)
same,"Blood and lymphatic system disorders TEAE, any grade",Overall,50 (25.9) n (%)
same,"Blood and lymphatic system disorders TEAE, grade ≥3",Overall,20 (10.4) n (%)
same,"Blood creatinine increased TEAE, any grade",Overall,21 (10.9) n (%)
same,"Blood creatinine increased TEAE, grade ≥3",Overall,0 n (%)
same,"Cardiac disorders TEAE, any grade",Overall,24 (12.4) n (%)
same,"Cardiac disorders TEAE, grade ≥3",Overall,10 (5.2) n (%)
same,"Constipation TEAE, any grade",Overall,66 (34.2) n (%)
same,"Constipation TEAE, grade ≥3",Overall,0 n (%)
same,"Constipation TRAE, any grade",Overall,22 (11.4) n (%)
same,"Constipation TRAE, grade ≥3",Overall,0 n (%)
same,"Cough TEAE, any grade",Overall,34 (17.6) n (%)
same,"Cough TEAE, grade ≥3",Overall,0 n (%)
same,"Decreased appetite TEAE, any grade",Overall,74 (38.3) n (%)
same,"Decreased appetite TEAE, grade ≥3",Overall,4 (2.1) n (%)
same,"Decreased appetite TRAE, any grade",Overall,51 (26.4) n (%)
same,"Decreased appetite TRAE, grade ≥3",Overall,2 (1.0) n (%)
same,"Dehydration TEAE, any grade",Overall,36 (18.7) n (%)
same,"Dehydration TEAE, grade ≥3",Overall,5 (2.6) n (%)
same,"Diarrhea TEAE, any grade",Overall,116 (60.1) n (%)
same,"Diarrhea TEAE, grade ≥3",Overall,25 (13.0) n (%)
same,"Diarrhea TRAE, any grade",Overall,98 (50.8) n (%)
same,"Diarrhea TRAE, grade ≥3",Overall,20 (10.4) n (%)
same,"Dizziness TEAE, any grade",Overall,34 (17.6) n (%)
same,"Dizziness TEAE, grade ≥3",Overall,0 n (%)
same,"Dizziness TRAE, any grade",Overall,20 (10.4) n (%)
same,"Dizziness TRAE, grade ≥3",Overall,0 n (%)
same,"Dry mouth TEAE, any grade",Overall,28 (14.5) n (%)
same,"Dry mouth TEAE, grade ≥3",Overall,0 n (%)
same,"Dry mouth TRAE, any grade",Overall,21 (10.9) n (%)
same,"Dry mouth TRAE, grade ≥3",Overall,0 n (%)
same,"Dysphonia TEAE, any grade",Overall,47 (24.4) n (%)
same,"Dysphonia TEAE, grade ≥3",Overall,0 n (%)
same,"Dysphonia TRAE, any grade",Overall,27 (14.0) n (%)
same,"Dysphonia TRAE, grade ≥3",Overall,0 n (%)
same,"Dyspnea TEAE, any grade",Overall,31 (16.1) n (%)
same,"Dyspnea TEAE, grade ≥3",Overall,6 (3.1) n (%)
same,"Edema peripheral TEAE, any grade",Overall,29 (15.0) n (%)
same,"Edema peripheral TEAE, grade ≥3",Overall,1 (0.5) n (%)
same,"Endocrine disorders TEAE, any grade",Overall,53 (27.5) n (%)
same,"Endocrine disorders TEAE, grade ≥3",Overall,2 (1.0) n (%)
same,"Fatigue TEAE, any grade",Overall,98 (50.8) n (%)
same,"Fatigue TEAE, grade ≥3",Overall,19 (9.8) n (%)
same,"Fatigue TRAE, any grade",Overall,83 (43.0) n (%)
same,"Fatigue TRAE, grade ≥3",Overall,14 (7.3) n (%)
same,"Gastrointestinal disorders TEAE, any grade",Overall,167 (86.5) n (%)
same,"Gastrointestinal disorders TEAE, grade ≥3",Overall,49 (25.4) n (%)
same,"General disorders and administration site conditions TEAE, any grade",Overall,131 (67.9) n (%)
same,"General disorders and administration site conditions TEAE, grade ≥3",Overall,23 (11.9) n (%)
same,"Headache TEAE, any grade",Overall,40 (20.7) n (%)
same,"Headache TEAE, grade ≥3",Overall,2 (1.0) n (%)
same,"Hypertension TEAE, any grade",Overall,88 (45.6) n (%)
same,"Hypertension TEAE, grade ≥3",Overall,47 (24.4) n (%)
same,"Hypertension TRAE, any grade",Overall,78 (40.4) n (%)
same,"Hypertension TRAE, grade ≥3",Overall,40 (20.7) n (%)
same,"Hypokalemia TEAE, any grade",Overall,20 (10.4) n (%)
same,"Hypokalemia TEAE, grade ≥3",Overall,3 (1.6) n (%)
same,"Hypomagnesemia TEAE, any grade",Overall,24 (12.4) n (%)
same,"Hypomagnesemia TEAE, grade ≥3",Overall,0 n (%)
same,"Hyponatremia TEAE, any grade",Overall,25 (13.0) n (%)
same,"Hyponatremia TEAE, grade ≥3",Overall,11 (5.7) n (%)
same,"Hypophosphatemia TEAE, any grade",Overall,20 (10.4) n (%)
same,"Hypophosphatemia TEAE, grade ≥3",Overall,11 (5.7) n (%)
same,"Hypothyroidism TEAE, any grade",Overall,47 (24.4) n (%)
same,"Hypothyroidism TEAE, grade ≥3",Overall,0 n (%)
same,"Hypothyroidism TRAE, any grade",Overall,33 (17.1) n (%)
same,"Hypothyroidism TRAE, grade ≥3",Overall,0 n (%)
same,"Infections and infestations TEAE, any grade",Overall,74 (38.3) n (%)
same,"Infections and infestations TEAE, grade ≥3",Overall,24 (12.4) n (%)
same,"Injury, poisoning, procedural complications TEAE, any grade",Overall,35 (18.1) n (%)
same,"Injury, poisoning, procedural complications TEAE, grade ≥3",Overall,2 (1.0) n (%)
same,"Investigations TEAE, any grade",Overall,116 (60.1) n (%)
same,"Investigations TEAE, grade ≥3",Overall,36 (18.7) n (%)
same,"Lipase increased TEAE, any grade",Overall,26 (13.5) n (%)
same,"Lipase increased TEAE, grade ≥3",Overall,14 (7.3) n (%)
same,"Metabolism and nutrition disorders TEAE, any grade",Overall,130 (67.4) n (%)
same,"Metabolism and nutrition disorders TEAE, grade ≥3",Overall,41 (21.2) n (%)
same,"Musculoskeletal and connective tissue disorders TEAE, any grade",Overall,103 (53.4) n (%)
same,"Musculoskeletal and connective tissue disorders TEAE, grade ≥3",Overall,10 (5.2) n (%)
same,"Nausea TEAE, any grade",Overall,81 (42.0) n (%)
same,"Nausea TEAE, grade ≥3",Overall,8 (4.1) n (%)
same,"Nausea TRAE, any grade",Overall,58 (30.1) n (%)
same,"Nausea TRAE, grade ≥3",Overall,5 (2.6) n (%)
same,"Neoplasms benign, malignant, unspecified TEAE, any grade",Overall,24 (12.4) n (%)
same,"Neoplasms benign, malignant, unspecified TEAE, grade ≥3",Overall,19 (9.8) n (%)
same,"Nervous system disorders TEAE, any grade",Overall,92 (47.7) n (%)
same,"Nervous system disorders TEAE, grade ≥3",Overall,8 (4.1) n (%)
same,"PPE syndrome TEAE, any grade",Overall,41 (21.2) n (%)
same,"PPE syndrome TEAE, grade ≥3",Overall,11 (5.7) n (%)
same,"PPE syndrome TRAE, any grade",Overall,39 (20.2) n (%)
same,"PPE syndrome TRAE, grade ≥3",Overall,11 (5.7) n (%)
same,"Pain in extremity TEAE, any grade",Overall,21 (10.9) n (%)
same,"Pain in extremity TEAE, grade ≥3",Overall,2 (1.0) n (%)
same,"Proteinuria TEAE, any grade",Overall,26 (13.5) n (%)
same,"Proteinuria TEAE, grade ≥3",Overall,2 (1.0) n (%)
same,"Proteinuria TRAE, any grade",Overall,22 (11.4) n (%)
same,"Proteinuria TRAE, grade ≥3",Overall,2 (1.0) n (%)
same,"Psychiatric disorders TEAE, any grade",Overall,39 (20.2) n (%)
same,"Psychiatric disorders TEAE, grade ≥3",Overall,4 (2.1) n (%)
same,"Rash TEAE, any grade",Overall,26 (13.5) n (%)
same,"Rash TEAE, grade ≥3",Overall,2 (1.0) n (%)
same,"Rash TRAE, any grade",Overall,21 (10.9) n (%)
same,"Rash TRAE, grade ≥3",Overall,2 (1.0) n (%)
same,"Renal and urinary disorders TEAE, any grade",Overall,51 (26.4) n (%)
same,"Renal and urinary disorders TEAE, grade ≥3",Overall,6 (3.1) n (%)
same,"Respiratory, thoracic and mediastinal disorders TEAE, any grade",Overall,121 (62.7) n (%)
same,"Respiratory, thoracic and mediastinal disorders TEAE, grade ≥3",Overall,21 (10.9) n (%)
same,Serious TEAE,Overall,79 (40.9) n (%)
same,Serious TRAE,Overall,30 (15.5) n (%)
same,"Skin and subcutaneous tissue disorders TEAE, any grade",Overall,109 (56.5) n (%)
same,"Skin and subcutaneous tissue disorders TEAE, grade ≥3",Overall,15 (7.8) n (%)
same,"Stomatitis TEAE, any grade",Overall,29 (15.0) n (%)
same,"Stomatitis TEAE, grade ≥3",Overall,2 (1.0) n (%)
same,"Stomatitis TRAE, any grade",Overall,28 (14.5) n (%)
same,"Stomatitis TRAE, grade ≥3",Overall,2 (1.0) n (%)
same,TEAE grade ≥3,Overall,145 (75.1) n (%)
same,TEAE leading to death,Overall,21 (10.9) n (%)
same,TEAE leading to discontinuation,Overall,41 (21.2) n (%)
same,TEAE leading to treatment modification,Overall,133 (68.9) n (%)
same,TRAE grade ≥3,Overall,103 (53.4) n (%)
same,TRAE leading to death,Overall,1 (0.5) n (%)
same,TRAE leading to discontinuation,Overall,26 (13.5) n (%)
same,TRAE leading to treatment modification,Overall,120 (62.2) n (%)
same,"UTI TEAE, any grade",Overall,23 (11.9) n (%)
same,"UTI TEAE, grade ≥3",Overall,6 (3.1) n (%)
same,"Vascular disorders TEAE, any grade",Overall,106 (54.9) n (%)
same,"Vascular disorders TEAE, grade ≥3",Overall,50 (25.9) n (%)
same,"Vomiting TEAE, any grade",Overall,61 (31.6) n (%)
same,"Vomiting TEAE, grade ≥3",Overall,11 (5.7) n (%)
same,"Vomiting TRAE, any grade",Overall,46 (23.8) n (%)
same,"Vomiting TRAE, grade ≥3",Overall,5 (2.6) n (%)
same,"Weight decreased TEAE, any grade",Overall,42 (21.8) n (%)
same,"Weight decreased TEAE, grade ≥3",Overall,3 (1.6) n (%)
same,"Weight decreased TRAE, any grade",Overall,27 (14.0) n (%)
same,"Weight decreased TRAE, grade ≥3",Overall,2 (1.0) n (%)
same,"ALT increased TEAE, any grade",Phase 1,4 (12.5) n (%)
same,"ALT increased TEAE, grade ≥3",Phase 1,1 (3.1) n (%)
same,"ALT increased TRAE, any grade",Phase 1,2 (6.3) n (%)
same,"ALT increased TRAE, grade ≥3",Phase 1,0 n (%)
same,"AST increased TEAE, any grade",Phase 1,5 (15.6) n (%)
same,"AST increased TEAE, grade ≥3",Phase 1,1 (3.1) n (%)
same,"AST increased TRAE, any grade",Phase 1,2 (6.3) n (%)
same,"AST increased TRAE, grade ≥3",Phase 1,0 n (%)
same,"Abdominal pain TEAE, any grade",Phase 1,4 (12.5) n (%)
same,"Abdominal pain TEAE, grade ≥3",Phase 1,1 (3.1) n (%)
